The assay concerns Pichia pastoris. Nature of the assay: 2-Dimensional gel electrophoresis of yeast protein expression. The assay is classed as cell-based. The following applies: 2D gel, 626 spots analyzed, FIG. 2 and 3. The procedure: To identify the metabolic changes in the yeast because of the polyphenol feed-strategy, 2-Dimensional gel electrophoreses and gene microarray analysis was conducted on the control, (i.e., a yeast extract without resveratrol growth factor), and a yeast-resveratrol ferment extract produced by the process of the present invention. The first dimension IEF focuses on separation of the proteins based on their isoelectric points and was conducted using the EttanIPGphor system with a manifold for protein loading. The 2nd dimension SDS-PAGE is an electrophoretic method for separating polypeptides according to their molecular weights using the DALT VI Electrophoresis Unit (GE-Amersham, Piscataway N.J.) (2, 6). To remove interfering substances and impurities, the yeast cell extracts were purified using the 2D Clean-up kit provided by GE Amersham. Each purified yeast sample was rehydrated overnight with Thiourea rehydration solution (7M Urea and 2M Thiourea, 2% Chaps, 0.5% Pharmalyte). The rehydrated samples were loaded onto the 1st dimension IEF. […]
FIG. 3 illustrates the laser densitometer comparison of the control versus the yeast/resveratrol of the invention. Reference spot numbering, pI, and MW are given for changing polypeptide spots and analyzed in the samples. […] A total of 626 spots were analyzed.

SMILES strings stand for the structures.

`Oc1ccc(/C=C/c2cc(O)cc(O)c2)cc1` [resveratrol, 3,4,5-transhydroxystilbene]: the “proteomic changes of the yeast versus untreated control” value is on record as “significant proteomic changes”.

Values taken from patent publication US9901538B2, “Personal care composition containing yeast/polyphenol ferment extract” (priority 2008, dated 2018).
